Test [1] deals with T1, unphosphorylated c-FMS kinase (uFMS, Seq. ID no. 1) (Homo sapiens, UniProt P07333).
T1 construct: purchased Millipore
T1 sequence (P07333 538-972): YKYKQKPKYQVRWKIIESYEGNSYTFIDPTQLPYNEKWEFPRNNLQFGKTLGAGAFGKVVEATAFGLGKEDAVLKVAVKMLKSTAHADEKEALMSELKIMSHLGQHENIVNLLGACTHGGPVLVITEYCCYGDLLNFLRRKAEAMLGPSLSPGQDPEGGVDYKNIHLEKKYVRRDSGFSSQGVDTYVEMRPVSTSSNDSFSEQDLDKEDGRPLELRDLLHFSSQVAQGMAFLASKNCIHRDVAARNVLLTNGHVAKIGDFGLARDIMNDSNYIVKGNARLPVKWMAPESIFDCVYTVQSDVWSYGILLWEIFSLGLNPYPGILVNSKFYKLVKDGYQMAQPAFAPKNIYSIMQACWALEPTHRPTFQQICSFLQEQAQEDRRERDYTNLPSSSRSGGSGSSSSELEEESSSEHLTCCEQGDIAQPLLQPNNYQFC
As to the kind of experiment: uFMS kinase enzymatic assay (pyruvate kinase/lactate dehydrogenase coupled). Format: biochemical. The conditions noted are these: ATP 500 μM, rate 3 to 4 h. The protocol:
uFMS Kinase (Seq. ID No. 1) Assay
Activity of unphosphorylated c-FMS kinase (uFMS, Seq. ID no. 1) was determined by following the production of ADP from the FMS kinase reaction with ATP and poly E4Y as substrates through coupling with the pyruvate kinase/lactate dehydrogenase system (e.g., Schindler et al. Science (2000) 289: 1938-1942). In this assay, the oxidation of NADH (thus the decrease at A340 nm) was continuously monitored spectrophometrically. The reaction mixture (100 μL) contained FMS (purchased from Millipore) (10 nM), polyE4Y (1 mg/mL), MgCl2 (10 mM), pyruvate kinase (4 units), lactate dehydrogenase (0.7 units), phosphoenol pyruvate (1 mM), NADH (0.28 mM) and ATP (500 μM) in 90 mM Tris buffer containing 0.2% octyl-glucoside and 1% DMSO, pH 7.5. The inhibition reaction was started by mixing serial diluted test compound with the above reaction mixture. The absorption at 340 nm was monitored continuously for 4 hours at 30° C. on Synergy 2 plate reader. The reaction rate was calculated using the 3 to 4 h time frame. Percent inhibition was obtained by comparison of reaction rate with that of a control (i.e. in the absence of test compound). IC50 values were calculated from a series of percent inhibition values determined at a range of inhibitor concentrations using software routines as implemented in the GraphPad Prism software package.

Test [2] concerns the target T2, unphosphorylated c-KIT kinase (uKIT, Seq. ID no. 2) (Homo sapiens, UniProt P10721).
T2 construct: uKit with N-terminal GST fusion used for screening
Nature of the test: uKit kinase enzymatic assay (pyruvate kinase/lactate dehydrogenase coupled). Format: biochemical. The conditions noted are these: ATP 2000 μM, rate 3 to 4 h. How it is done:
uKit Kinase (Seq. ID No. 2) Assay
Activity of unphosphorylated c-KIT kinase (uKIT, Seq. ID no. 2) was determined by following the production of ADP from the KIT kinase reaction with ATP and poly E4Y as substrates through coupling with the pyruvate kinase/lactate dehydrogenase system (e.g., Schindler et al. Science (2000) 289: 1938-1942). In this assay, the oxidation of NADH (thus the decrease at A340 nm) was continuously monitored spectrophometrically. The reaction mixture (100 μl) contained unphosphorylated KIT (12 nM), polyE4Y (1 mg/mL), MgCl2 (10 mM), pyruvate kinase (4 units), lactate dehydrogenase (0.7 units), phosphoenol pyruvate (1 mM), and NADH (0.28 mM) and ATP (2000 μM) in 90 mM Tris buffer containing 0.2% octyl-glucoside and 1% DMSO, pH 7.5. The inhibition reaction was started by mixing serial diluted test compound with the above reaction mixture. The absorption at 340 nm was monitored continuously for 4 hours at 30° C. on Synergy 2 plate reader (BioTech). Reaction rates around 3 to 4 h time frame were used to calculate % inhibitions, from which IC50 values were generated.

The target of test [3] is T3, unphosphorylated PDGFRβ kinase (uPDGFRβ, Seq. ID No. 3) (Homo sapiens, UniProt P09619).
T3 construct: purchased DeCode
T3 sequence (P09619 557-1106): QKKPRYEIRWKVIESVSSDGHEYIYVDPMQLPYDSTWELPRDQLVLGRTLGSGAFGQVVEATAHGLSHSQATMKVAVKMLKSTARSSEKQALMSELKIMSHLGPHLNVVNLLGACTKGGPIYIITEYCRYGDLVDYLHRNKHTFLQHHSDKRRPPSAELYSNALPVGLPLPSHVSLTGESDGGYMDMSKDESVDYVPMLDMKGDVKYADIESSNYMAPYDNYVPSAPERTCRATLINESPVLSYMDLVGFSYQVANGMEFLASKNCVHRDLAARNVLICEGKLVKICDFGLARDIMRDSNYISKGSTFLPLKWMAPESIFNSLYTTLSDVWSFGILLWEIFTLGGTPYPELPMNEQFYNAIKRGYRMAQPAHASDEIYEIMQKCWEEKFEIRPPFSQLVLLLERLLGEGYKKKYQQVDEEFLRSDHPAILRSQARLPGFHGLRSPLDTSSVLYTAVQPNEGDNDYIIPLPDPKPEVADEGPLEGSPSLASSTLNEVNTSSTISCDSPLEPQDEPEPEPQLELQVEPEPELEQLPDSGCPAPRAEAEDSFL
Nature of the test: uPDGFRβ kinase enzymatic assay (pyruvate kinase/lactate dehydrogenase coupled). It is filed as biochemical. The note with it: ATP 500 μM, rate 1.5 to 2.5 h. The protocol: Unphosphorylated PDGFRβ (uPDGFRβ) Kinase (Seq. ID No. 3) Assay
Activity of unphosphorylated PDGFRβ kinase (uPDGFRβ, Seq. ID No. 3) was determined by following the production of ADP from the kinase reaction with ATP and poly E4Y as substrates through coupling with the pyruvate kinase/lactate dehydrogenase system (e.g., Schindler et al. Science (2000) 289: 1938-1942). In this assay, the oxidation of NADH (thus the decrease at A340 nm) was continuously monitored spectrophometrically. The reaction mixture (100 μL) contained PDGFRβ (DeCode, 15.7 nM), polyE4Y (2.5 mg/mL), MgCl2 (10 mM), pyruvate kinase (4 units), lactate dehydrogenase (0.7 units), phosphoenol pyruvate (1 mM) and NADH (0.28 mM) and ATP (500 μM) in a 90 mM Tris buffer containing 0.2% octyl-glucoside and 1% DMSO, at pH 7.5. The inhibition reaction was started by mixing serial diluted test compound with the above reaction mixture. The absorption at 340 nm was monitored continuously for 4 h at 30° C. on a Polarstar Optima or Synergy 2 plate reader. The reaction rate was calculated using the 1.5 to 2.5 h time frame. Percent inhibition was obtained by comparison of reaction rate with that of a control (i.e. with no test compound). IC50 values were calculated from a series of percent inhibition values determined at a range of inhibitor concentrations using software routines as implemented in the GraphPad Prism software package.

The subject of test [4] is M-NFS-60 cells. Nature of the test: M-NFS-60 cell proliferation assay (resazurin). Format: cell-based. The conditions noted are these: 67 h incubation. How it is done:
M-NFS-60 cells (catalog #CRL-1838) were obtained from the American Type Culture Collection (ATCC, Manassas, Va.). Briefly, cells were grown in suspension in RPMI 1640 medium supplemented with 10% characterized fetal bovine serum (Invitrogen, Carlsbad, Calif.), 0.05 mM 2-mercaptoethanol, and 20 ng/mL mouse recombinant macrophage colony stimulating factor (M-CSF) at 37° C., 5% CO2, and 95% humidity. Cells were allowed to expand until reaching saturation at which point they were subcultured or harvested for assay use.
M-NFS-60 Cell Proliferation Assay
A serial dilution of test compound was dispensed into a 384-well black clear bottom plate (Corning, Corning, N.Y.). Two thousand five hundred cells were added per well in 50 μL complete growth medium. Plates were incubated for 67 h at 37° C., 5% CO2, and 95% humidity. At the end of the incubation period 10 μL of a 440 μM solution of resazurin (Sigma, St. Louis, Mo.) in PBS was added to each well and incubated for an additional 5 h at 37° C., 5% CO2, and 95% humidity. Plates were read on a Synergy2 reader (Biotek, Winooski, Vt.) using an excitation of 540 nm and an emission of 600 nm. IC50 values were calculated from a series of percent inhibition values determined at a range of inhibitor concentrations using software routines as implemented in the GraphPad Prism software package.
On the technique in general: Alamar Blue is a resazurin reagent that responds to reducing activity.

In test [5] the test system is osteoclast precursors. As to the kind of experiment: Osteoclast tartrate-resistant acid phosphatase assay. Format: cell-based. The conditions noted are these: RANKL and M-CSF, 7-14 days, tartrate-resistant acid phosphatase activity. How it is done:
Osteoclast Tartrate-Resistant Acid Phosphatase Assay
A serial dilution of test compound was dispensed into a 384-well black clear bottom plate (Nalge Nunc International, Rochester, N.Y.). Compound was diluted by the addition of DMEM media supplemented with 10% characterized fetal bovine serum (Invitrogen, Carlsbad, Calif.). Diluted compound was transferred to a 384-well black clear bottom plate. Two-thousand five hundred osteoclast precursors (Lonza, Walkersville, Md.) were added per well in growth media containing Receptor Activator of Nuclear Factor Kappa-beta ligand (RANKL) and M-CSF (R&D Systems, Minneapolis, Minn.). Plates were incubated for 7-14 days at 37 degrees Celsius, 5% CO2, and 95% humidity to allow differentiation of osteoclast precursors. At the end of the incubation period, 10 μL of supernatant from each well was transferred to a clear 384-well plate. Tartrate-resistant acid phosphatase activity in the supernatant samples was determined using an acid phosphatase assay kit (Sigma, St. Louis, Mo.). Absorbance was measured at 550 nm using a plate reader. Data was analyzed using Prism software (Graphpad, San Diego, Calif.) to calculate IC50 values.

Molecules are shown by their SMILES. Where only a bound is given, the exact number is not on record here.

The IC50 is the concentration at which inhibition is half-maximal.

T2 sequence (P10721 with tags, fused parts or gaps): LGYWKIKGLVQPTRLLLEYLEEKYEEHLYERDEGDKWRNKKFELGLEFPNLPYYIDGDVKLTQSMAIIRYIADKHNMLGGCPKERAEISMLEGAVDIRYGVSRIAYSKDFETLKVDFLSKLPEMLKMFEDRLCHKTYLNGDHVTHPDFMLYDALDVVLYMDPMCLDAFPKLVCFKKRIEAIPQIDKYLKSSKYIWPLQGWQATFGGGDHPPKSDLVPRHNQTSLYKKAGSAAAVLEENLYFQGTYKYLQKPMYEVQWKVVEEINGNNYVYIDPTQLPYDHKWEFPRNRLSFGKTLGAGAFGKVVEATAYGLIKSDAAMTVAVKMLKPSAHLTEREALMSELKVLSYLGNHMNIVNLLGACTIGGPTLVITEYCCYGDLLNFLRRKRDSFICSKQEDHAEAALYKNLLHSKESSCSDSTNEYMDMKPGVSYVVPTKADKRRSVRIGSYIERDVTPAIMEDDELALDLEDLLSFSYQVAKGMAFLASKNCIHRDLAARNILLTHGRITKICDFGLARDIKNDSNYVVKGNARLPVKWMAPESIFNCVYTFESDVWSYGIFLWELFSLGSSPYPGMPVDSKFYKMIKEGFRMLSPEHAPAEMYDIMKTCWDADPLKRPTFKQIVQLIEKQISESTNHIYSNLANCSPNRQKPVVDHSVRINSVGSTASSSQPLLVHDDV

In the case of `CCc1nc(-n2nc(C(C)(C)C)[nH]c2=O)ccc1Oc1ccnc(-c2cnn(C)c2)c1` [Example 8, 3-(tert-butyl)-1-(6-ethyl-5-((2-(1-methyl-1H-pyrazol-4-yl)pyridin-4-yl)oxy)pyridin-2-yl)-1H-1,2,4-triazol-5(4H)-one], the half-maximal inhibitory concentration (IC50) in test [1] is 0.1 to 1 µM; in test [2] it was > 1 µM; in test [3] it was > 1 µM; in test [4], 0.1 to 1 µM; in test [5] it was 0.1 to 1 µM.
As for `Cc1cn(-c2cc(Oc3ccc(-n4nc(C(C)(C)C)[nH]c4=O)nc3C)ccn2)cn1` [Example 19, 3-(tert-butyl)-1-(6-methyl-5-((2-(4-methyl-1H-imidazol-1-yl)pyridin-4-yl)oxy)pyridin-2-yl)-1H-1,2,4-triazol-5(4H)-one], the IC50 was 0.01 to 0.1 µM in test [1]; > 1 µM in test [2]; > 1 µM in test [3]; 0.1 to 1 µM in test [4]; 0.1 to 1 µM in test [5].
Turning to `Cc1nc(-n2nc(C(C)(C)C)[nH]c2=O)ccc1Oc1ccnc(NC(=O)C2CC2)c1` [Example 45, N-(4-((6-(3-(tert-butyl)-5-oxo-4,5-dihydro-1H-1,2,4-triazol-1-yl)-2-methylpyridin-3-yl)oxy)pyridin-2-yl)cyclopropanecarboxamide], the IC50 in test [1] was 0.1 to 1 µM; in test [2], > 1 µM; in test [3], > 1 µM; in test [4], 0.1 to 1 µM; in test [5], 0.01 to 0.1 µM.

(Values after US9193719B2, “1,2,4-triazol-5-ones and analogs exhibiting anti-cancer and anti-proliferative activities” (Deciphera Pharmaceuticals, LLC, priority 2013, dated 2015).)
